Experimental data taken from US6828462B2, “Unsaturated 1-amino-alkylcyclohexane NMDA, 5HT3, and neuronal nicotinic receptor antagonists” (Merz Pharma GmbH & Co. KGAA, priority 2001, dated 2004).
Like-named read-outs stand apart in the source and are kept apart here.

Experiments:
ataxia (rotarod) = test: Accelerating rotarod test, ataxia (motor coordination); type: in vivo, mice; details: for Therapeutic index (ataxia ED50 / MES ED50): ED50 ataxia divided by ED50 MES
Experimental: (§1) NMR female mice (18-28 g) housed 5 per cage were used for the maximal electroshock (MES) and motor impairment tests. All animals were kept with water and food ad libitum under a 12 hour light-dark cycle (light on at 6 a.m.) and at a controlled temperature (20±0.5C). All experiments were performed between 10 a.m. and 5 p.m. Tested agents were injected 30 min. i.p. before the induction of convulsions if not stated otherwise (see below). All compounds were dissolved in 0.9% saline.
(§2) The MES test was performed together with tests for myorelaxant action (traction reflex) and motor coordination (rotarod). For the traction reflex test mice were placed with their forepaws on a horizontal rod and were required to place all 4 paws on the wire within 10 seconds. To test ataxia (motor coordination) mice were placed on an accelerating rotarod and were required to remain on the rod for 1 minute. […] These tests were followed by MES (100 Hz, 0.5 second shock duration, 50 mA shock intensity, 0.9 ms impulse duration, Ugo Basile) applied through corneal electrodes. The presence of tonic convulsions was scored (tonic extension of hind paws with minimum angle to the body of 90). The aim was to obtain ED50s for all parameters scored (anticonvulsive activity and motor side effects) with use of the Litchfield Wilcoxon test for quantal dose responses. Division of the ED50 for side effects (ataxia or myorelaxation) by the ED50 for antagonism of electroshock convulsions was used as a therapeutic index (TI).
(§3) 4-7 doses of antagonists were tested in each of the in vivo tests (5-8 animals per dose) to allow calculation of graded ED50s according to probit analysis (Litchfield and Wilcoxon) with correction for 0% to 100% effects. ED50s are presented with 95% confidence limits (Cl). Pearson product moment correlation analysis (Sigma Stat, Jandel Scientific) was used to compare in vitro potencies and in vivo anticonvulsant activity.

[1] = as above; type: in vivo, mice; details: mouse, in vivo, ip; NMR female mice, accelerating rotarod
Experimental: as §1, §2, §3

[2] = target: NMDA receptor ([3H]-(+)-MK-801 site) (Rattus norvegicus, UniProt P35439); test: [3H]-(+)-MK-801 receptor binding, rat cortex membranes
[3] = system: myorelaxation (traction reflex); test: Traction reflex test, myorelaxant action; type: in vivo, mice; details: for Therapeutic index (myorelaxation ED50 / MES ED50): ED50 myorelaxation divided by ED50 MES
Experimental: as §1, §2, §3

[4] = Traction reflex test, myorelaxant action; type: in vivo, mice; details: mouse, in vivo, ip; NMR female mice, i.p., traction reflex; read-out: Myorelaxation ED50
Experimental: as §1, §2, §3

[5] = system: maximal electroshock (MES) tonic convulsions; test: Maximal electroshock (MES) test, anticonvulsive activity; type: in vivo, mice; details: for ED50: Mus musculus, ip, read-out: MES ED50
Experimental: as §1, §2, §3

NMDA receptors = target: T1, NMDA receptors (Rattus norvegicus, UniProt P35439); test: Patch clamp, NMDA-induced currents in hippocampal neurones; type: cell-based
T1 construct: Patch clamp recordings were made from these neurones; endogenous in cells; host or cells: primary cultured hippocampal neurones from rat embryos (E20 to E21)

[6] = NMR female mice, i.p. 30 min before convulsions
[7] = read-out: [^3H]MK-801 Ki, rat cortex membranes, [3H]-(+)-MK-801 5 nM, glycine 10 μM, glutamate 10 μM, mean
[8] = Table 1, mean, N=6, read-out: NMDA IC50

Compound | Therapeutic index (ataxia ED50 / MES ED50) (ataxia (rotarod)) | ED50 at 30 min [1] [mg/kg] | Ki [2] [µM] | Therapeutic index (myorelaxation ED50 / MES ED50) [3] | ED50 at 30 min [4] [mg/kg] | ED50 [5, 6] [mg/kg] | Ki [2, 7] [µM] | IC50 (NMDA receptors; [8]) [µM] | ED50 [5] [mg/kg] | Ataxia ED50 (ataxia (rotarod); NMR female mice, i.p., accelerating rotarod) | Myorelaxation ED50 ([3]; NMR female mice, i.p., traction reflex) | MES ED50 [5, 6] | IC50 (NMDA receptors) [µM]
CC1(C)C=C(N)CC(C)(C)C1 [MRZ 2/1005, 1-Amino-3,3,5,5-Tetramethyl-1-cyclohexene] | 1.3 | 26.8 | 13.6 | 1.7 | 35.7 | 20.5 |  |  |  |  |  |  | 
Neramexane Sulphate [MRZ 2000, reference compound] |  |  |  |  |  |  | 1.68 |  |  |  |  |  | 
C#CCC1(N2CCCCC2)CC(C)(C)CC(C)(C)C1 [MRZ 2016, 1-[3,3,5,5-Tetramethyl-1-(2-propynyl)cyclohexyl]piperidine] |  | > 50 | 42.2 |  | > 50 |  |  | 71.2 | > 50 |  |  |  | 
C=CCC1(N2CCCCC2)CC(C)(C)CC(C)(C)C1 [MRZ 2013, 1-(1-Allyl-3,3,5,5-tetramethylcyclohexyl)piperidine] |  | > 50 | 49.2 |  | > 50 |  |  |  | > 50 |  |  |  | 
CC(N)C1=CC(C)(C)CC(C)(C)C1 (stereo not shown) [MRZ 2/749, 1-(1-Aminoethyl)-3,3,5,5-tetramethylcyclohex-1-ene] | 1.4 | 37.1 | 10.8 | 1.5 | 38.6 | 26.6 |  |  |  |  |  |  | 
CC1=CC(C)(N)CC(C)(C)C1 (stereo not shown) [MRZ 2002, 1,3,5,5-Tetramethyl-2-cyclohexen-1-amine] | 2.0 | 53 | 5.7 | 1.3 | 34 |  |  |  | 26.1 |  |  |  | 
CC1(C)CC(=CCN)CC(C)(C)C1 [MRZ 2/1021, 2-(3,3,5,5-Tetramethylcyclohexylidene)ethanamine] | 0.8 | 23.1 | 2.15 | 0.6 | 16.5 | 29.5 |  | 0.33 |  |  |  |  | 
C=CC1(CCN)CC(C)(C)CC(C)(C)C1 [MRZ 2014, 2-(1-Vinyl-3,3,5,5-tetramethylcyclohexyl-1)ethylamine] | 0.5 | 25.8 | 3.12 | 0.3 | 13.9 | 47.8 |  | 0.1 |  |  |  |  | 
C=C[C@@]1(C)C[C@H](C)C[C@@](C)(N)C1 (relative stereo) [MRZ 2009, cis-3-Vinyl-1,3,trans-5-trimethylcyclohexylamine] |  | > 50 | 22.3 |  | > 50 | > 50 |  | 58.2 |  |  |  |  | 
C=CCC1(N)CC(C)(C)CC(C)(C)C1 [MRZ 2005, 1-Allyl-3,3,5,5-tetramethylcyclohexanamine] | 1.3 | 49.3 | 9.35 | 1.1 | 39.8 | 37.3 |  | 12.6 |  |  |  |  | 
C=CCNC1(C)CC(C)(C)CC(C)(C)C1 [MRZ 2026, N-Allyl-1,3,3,5,5-pentamethylcyclohexanamine] | 1.5 | 37.6 |  | 1.1 | 26.7 | 25.4 |  | 29.6 |  |  |  |  | 
CC1=CC(C)(C)CC(C)(C)C1N.Cl (stereo not shown) [MRZ 2/657, 1-amino-2,4,4,6,6-pentamethyl-cyclohex-2-en Hydrochloride] |  | > 30 | 13.4 |  | > 30 | > 30 |  |  |  |  |  |  | 
CC(C)(N)C=C1CC(C)(C)CC(C)(C)C1 [MRZ 2019, 2-Methyl-1-(3,3,5,5-tetramethylcyclohexylidene)-2-propanamine] |  | > 50 | 73.1 |  | > 50 |  |  |  | > 50 |  |  |  | 
CC(C)(N)CC1=CC(C)(C)CC(C)(C)C1 [MRZ 2010, 2-Methyl-1-(3,3,5,5-tetramethyl-1-cyclohexen-1-yl)-2-propanamine] |  | > 50 | 44.9 |  | > 50 |  |  |  | > 50 |  |  |  | 
CC1(C)CC(=CCCN)CC(C)(C)C1 [MRZ 2018, 3-(3,3,5,5-Tetramethylcyclohexylidene)propanamine] | 0.3 | 26.7 | 20.2 | 0.4 | 29.4 | 78.5 |  | 37.1 |  |  |  |  | 
CC1=CC(N)CC(C)(C)C1 (stereo not shown) [MRZ 2/1023, 1-Amino-3,3,5-trimethyl-2-cyclohexene] |  |  |  |  |  |  | 49.6 |  |  | >50 | >50 | >50 | 
CC(CN)=C1CC(C)(C)CC(C)(C)C1 [MRZ 2020, 2-(3,3,5,5-Tetramethylcyclohexylidene)propanamine] | 1.1 | 27.6 | 7.45 | 1.3 | 34.5 | 26.1 |  |  |  |  |  |  | 
C=CCC(CN)C1(C)CC(C)(C)CC(C)(C)C1 (stereo not shown) [MRZ 2017, 2-(1,3,3,5,5-Pentamethylcyclohexyl)-4-pentenylamine] | 0.9 | 33.7 | 6.79 | 1.0 | 35.6 | 36.9 |  | 1.19 |  |  |  |  | 
CCC1(CC)CC(=CC(C)N)CC(C)(C)C1 (stereo not shown) [MRZ 2008, 1-(3,3-Diethyl-5,5-dimethylcyclohexylidene)-2-propanamine] |  |  | 8.07 |  |  |  |  | 2.74 |  |  |  |  | 
C=CC1(NC)CC(C)(C)CC(C)(C)C1 [MRZ 2021, N-Methyl-1-ethenyl-3,3,5,5-tetramethylcyclohexylamine] | 1.8 | 24.7 | 6.54 | 1.6 | 21.4 |  |  |  | 13.6 |  |  |  | 12.7
CC(N)C=C1CC(C)(C)CC(C)(C)C1 (stereo not shown) [MRZ 2006, 1-(3,3,5,5-Tetramethylcyclohexylidene)-2-propanamine] | 0.7 | 40.9 | 10.1 | 0.8 | 44.6 | 57 |  |  |  |  |  |  | 
CC(C)=CCC1(N2CCCCC2)CC(C)(C)CC(C)(C)C1 [MRZ 2015, 1-[3,3,5,5-Tetramethyl-1-(3-methyl-2-butenyl)cyclohexyl]piperidine] |  | > 50 | 83 |  | > 50 |  |  |  | > 50 |  |  |  | 
